SMILES strings stand for the structures.

In the experiment the target is T1, Androgen Receptor (Homo sapiens, UniProt P10275).
T1 construct: endogenous in cells; host or cells: VCaP cells
T1 sequence (P10275 1-920): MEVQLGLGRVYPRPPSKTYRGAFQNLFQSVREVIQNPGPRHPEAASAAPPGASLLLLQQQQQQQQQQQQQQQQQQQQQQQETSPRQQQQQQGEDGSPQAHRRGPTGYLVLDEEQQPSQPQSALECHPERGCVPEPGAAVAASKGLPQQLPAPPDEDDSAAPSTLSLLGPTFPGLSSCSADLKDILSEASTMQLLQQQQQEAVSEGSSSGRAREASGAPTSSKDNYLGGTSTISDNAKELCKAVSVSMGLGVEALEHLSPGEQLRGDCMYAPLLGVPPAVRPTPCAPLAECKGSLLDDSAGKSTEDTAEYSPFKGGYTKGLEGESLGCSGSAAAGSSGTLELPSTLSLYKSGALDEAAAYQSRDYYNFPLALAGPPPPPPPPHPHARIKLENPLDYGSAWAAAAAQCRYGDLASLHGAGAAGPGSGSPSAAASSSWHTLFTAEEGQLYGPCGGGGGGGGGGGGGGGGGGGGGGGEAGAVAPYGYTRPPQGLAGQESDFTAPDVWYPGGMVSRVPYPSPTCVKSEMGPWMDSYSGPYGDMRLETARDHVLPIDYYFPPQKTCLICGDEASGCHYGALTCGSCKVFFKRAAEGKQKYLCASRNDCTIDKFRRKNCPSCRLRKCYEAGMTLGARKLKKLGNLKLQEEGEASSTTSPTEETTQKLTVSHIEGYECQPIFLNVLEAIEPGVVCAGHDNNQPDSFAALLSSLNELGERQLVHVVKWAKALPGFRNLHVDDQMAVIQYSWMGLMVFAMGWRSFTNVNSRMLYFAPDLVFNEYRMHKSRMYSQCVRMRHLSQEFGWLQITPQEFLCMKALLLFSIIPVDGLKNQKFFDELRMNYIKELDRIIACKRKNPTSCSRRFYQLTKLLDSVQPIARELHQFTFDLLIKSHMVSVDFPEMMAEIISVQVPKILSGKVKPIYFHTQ
Nature of the experiment: Androgen Receptor ELISA assay (PathScan AR ELISA) in VCaP cells: AR degradation, Dmax and DC50. Type of experiment: cell-based. The note with it: for Dmax: VCaP, read-out: VCaP Dmax (%); for DC50: read-out: VCaP DC50, concentration that caused 50% Androgen Receptor degradation, VCaP cells (Table 32). Summed up:
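VCaP cells in phenol red-free RPMI with 5% charcoal-stripped FBS were grown at least 3 days, then given compound as 7 half-log doses in 0.1% DMSO with 0.1 nM R1881 for 24 h. Lysates went into a sandwich AR ELISA with TMB read at 450 nm.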
A general note: In an ELISA, binding on a coated surface is turned into a signal by an enzyme label.

The term Dmax denotes the greatest extent of degradation seen. For orientation: DC50 means the concentration giving 50% degradation. As for `Cc1ncsc1-c1ccc(CNC(=O)[C@@H]2C[C@@H](O)CN2C(=O)[C@@H](NC(=O)COCCCCOc2cccc(-c3ccc(N4C(=S)N(c5ccc(C#N)c(C(F)(F)F)c5)C(=O)C4(C)C)cc3)c2)C(C)(C)C)cc1` [Example 99, (2S,4R)-1-[(2S)-2-(2-{4-[3-(4-{3-[4-cyano-3-(trifluoromethyl)phenyl]-5,5-dimethyl-4-oxo-2-sulfanylideneimidazolidin-1-yl}phenyl)phenoxy]butoxy}acetamido)-3,3-dimethylbutanoyl]-4-hydroxy-N-{[4-(4-methyl-1,3-thiazol-5-yl)phenyl]methyl}pyrrolidine-2-carboxamide], the Dmax lay within 51 to 70% and the DC50 was less than 50 nM.

As for `Cc1ncoc1-c1ccc(CNC(=O)[C@@H]2C[C@@H](O)CN2C(=O)[C@@H](NC(=O)COCCCCOc2ccc(-c3ccc(N4C(=S)N(c5ccc(C#N)c(Cl)c5)C(=O)C4(C)C)c(F)c3)cc2)C(C)(C)C)cc1` [Example 100, (2S,4R)-1-[(2S)-2-{2-[4-(4-{4-[3-(3-chloro-4-cyanophenyl)-5,5-dimethyl-4-oxo-2-sulfanylideneimidazolidin-1-yl]-3-fluorophenyl}phen-oxy)butoxy]acetamido}-3,3-dimethylbutanoyl]-4-hydroxy-N-{[4-(4-methyl-1,3-oxazol-5-yl)phenyl]methyl}pyrrolidine-2-carboxamide], the Dmax was greater than 71% and the DC50 was less than 50 nM.

As to `Cc1ncoc1-c1ccc([C@H](C)NC(=O)[C@@H]2C[C@@H](O)CN2C(=O)[C@@H](NC(=O)COCCCCOc2ccc(-c3ccc(N4C(=S)N(c5ccc(C#N)c(C(F)(F)F)c5)C(=O)C4(C)C)cc3)cc2)C(C)(C)C)cc1` [Example 101, (2S,4R)-1-[(2S)-2-(2-{4-[4-(4-{3-[4-cyano-3-(trifluoromethyl)phenyl]-5,5-dimethyl-4-oxo-2-sulfanylideneimidazolidin-1-yl}phenyl)phenoxy]butoxy}acetamido)-3,3-dimethylbutanoyl]-4-hydroxy-N-[(1S)-1-[4-(4-methyl-1,3-oxazol-5-l)phenyl]ethyl]pyrrolidine-2-carboxamide], the greatest degradation seen (Dmax) is greater than 71% and the DC50 is less than 50 nM.

For `Cc1ncsc1-c1ccc(CNC(=O)[C@@H]2C[C@@H](O)CN2C(=O)[C@@H](NC(=O)COCCCCOc2ccc(-c3ccc(N4C(=S)N(c5ccc(C#N)c(C(F)(F)F)c5)C(=O)C4(C)C)cn3)cc2)C(C)(C)C)cc1` [Example 102, (2S,4R)-1-[(2S)-2-(2-{4-[4-(5-{3-[4-cyano-3-(trifluoromethyl)phenyl]-5,5-dimethyl-4-oxo-2-sulfanylideneimidazolidin-1-yl}pyridin-2-yl)phenoxy]butoxy}acetamido)-3,3-dimethylbutanoyl]-4-hydroxy-N-{[4-(4-methyl-1,3-thiazol-5-yl)phenyl]methyl}pyrrolidine-2-carboxamide], the Dmax was greater than 71% and the DC50 is less than 50 nM.

Consider `Cc1ncsc1-c1ccc(CNC(=O)[C@@H]2C[C@@H](O)CN2C(=O)[C@@H](NC(=O)COCCCCNc2ccc(-c3ccc(N4C(=S)N(c5ccc(C#N)c(C(F)(F)F)c5)C(=O)C4(C)C)cc3)cc2)C(C)(C)C)cc1` [Example 103, (2S,4R)-1-[(2S)-2-[2-(4-{[4-(4-{3-[4-cyano-3-(trifluoromethyl)phenyl]-5,5-dimethyl-4-oxo-2-sulfanylideneimidazolidin-1-yl}phenyl)phen-yl]amino}butoxy)acetamido]-3,3-dimethylbutanoyl]-4-hydroxy-N-{[4-(4-methyl-1,3-thiazol-5-yl)phenyl]methyl}pyrrolidine-2-carboxamide], for which the Dmax was greater than 71% and the DC50 was less than 50 nM.

Regarding `Cn1cncc1-c1ccc(CNC(=O)[C@@H]2C[C@@H](O)CN2C(=O)[C@@H](NC(=O)COCCCCOc2ccc(-c3ccc(N4C(=S)N(c5ccc(C#N)c(C(F)(F)F)c5)C(=O)C4(C)C)cc3)cc2)C(C)(C)C)cc1` [Example 104, (2S,4R)-1-[(2S)-2-(2-{4-[4-(4-{3-[4-cyano-3-(trifluoromethyl)phenyl]-5,5-dimethyl-4-oxo-2-sulfanylideneimidazolidin-1-yl}phenyl)phenoxy]butoxy}acetamido)-3,3-dimethylbutanoyl]-4-hydroxy-N-{[4-(1-methyl-1H-imidazol-5-yl)phenyl]methyl}pyrrolidine-2-carboxamide], the Dmax was greater than 71% and the DC50 is less than 50 nM.

On to `CC(C)(C)[C@H](NC(=O)COCCCCOc1ccc(-c2ccc(N3C(=S)N(c4ccc(C#N)c(C(F)(F)F)c4)C(=O)C3(C)C)cc2)cc1)C(=O)N1C[C@H](O)C[C@H]1C(=O)NCc1ccc(-c2ocnc2Cl)cc1` [Example 105, (2S,4R)-N-{[4-(4-chloro-1,3-oxazol-5-yl)phenyl]methyl}-1-[(2S)-2-(2-{4-[4-(4-{3-[4-cyano-3-(trifluoromethyl)phenyl]-5,5-dimethyl-4-oxo-2-sulfanylideneimidazolidin-1-yl}phenyl)phenoxy]butoxy}acetamido)-3,3-dimethylbutanoyl]-4-hydroxypyrrolidine-2-carboxamide], for which the Dmax lay in the range of 51 to 70% and the DC50 is 51 to 500 nM.

In the case of `CC(C)(C)[C@H](NC(=O)COCCCCOc1ccc(-c2ccc(N3C(=S)N(c4ccc(C#N)c(Cl)c4)C(=O)C3(C)C)c(F)c2)cc1)C(=O)N1C[C@H](O)C[C@H]1C(=O)NCc1ccc(-c2cnco2)cc1` [Example 106, (2S,4R)-1-[(2S)-2-{2-[4-(4-{4-[3-(3-chloro-4-cyanophenyl)-5,5-dimethyl-4-oxo-2-sulfanylideneimidazolidin-1-yl]-3-fluorophenyl}phen-oxy)butoxy]acetamido}-3,3-dimethylbutanoyl]-4-hydroxy-N-{[4-(1,3-oxazol-5-yl)phenyl]methyl}pyrrolidine-2-carboxamide], the Dmax is greater than 71% and the DC50 is less than 50 nM.

Turning to `Cc1ncsc1-c1ccc(CNC(=O)[C@@H]2C[C@@H](O)CN2C(=O)[C@@H](NC(=O)COCCCCOc2ccc(-c3ccc(N4C(=S)N(c5ccc(C#N)c(Cl)c5)C(=O)C4(C)C)c(F)c3)cc2)C(C)(C)C)cc1` [Example 107, (2S,4R)-1-[(2S)-2-{2-[4-(4-{4-[3-(3-chloro-4-cyanophenyl)-5,5-dimethyl-4-oxo-2-sulfanylideneimidazolidin-1-yl]-3-fluorophenyl}phen-oxy)butoxy]acetamido}-3,3-dimethylbutanoyl]-4-hydroxy-N-{[4-(4-methyl-1,3-thiazol-5-yl)phenyl]methyl}pyrrolidine-2-carboxamide], the Dmax was greater than 71% and the DC50 is less than 50 nM.

Turning to `CC(C)(C)[C@H](NC(=O)COCCCCOc1ccc(-c2ccc(N3C(=S)N(c4ccc(C#N)c(Cl)c4)C(=O)C3(C)C)c(F)c2)cc1)C(=O)N1C[C@H](O)C[C@H]1C(=O)NCc1ccc(-c2cncs2)cc1` [Example 108, (2S,4R)-1-[(2S)-2-{2-[4-(4-{4-[3-(3-chloro-4-cyanophenyl)-5,5-dimethyl-4-oxo-2-sulfanylideneimidazolidin-1-yl]-3-fluorophenyl}phen-oxy)butoxy]acetamido}-3,3-dimethylbutanoyl]-4-hydroxy-N-{[4-(1,3-thiazol-5-yl)phenyl]methyl}pyrrolidine-2-carboxamide], the Dmax is greater than 71% and the DC50 is less than 50 nM.

Consider `CC(C)(C)[C@H](NC(=O)COCCCCOc1ccc(-c2ccc(N3C(=S)N(c4ccc(C#N)c(Cl)c4)C(=O)C3(C)C)cc2F)cc1)C(=O)N1C[C@H](O)C[C@H]1C(=O)NCc1ccc(-c2cnco2)cc1` [Example 109, (2S,4R)-1-[(2S)-2-{2-[4-(4-{4-[3-(3-chloro-4-cyanophenyl)-5,5-dimethyl-4-oxo-2-sulfanylideneimidazolidin-1-yl]-2-fluorophenyl}phen-oxy)butoxy]acetamido}-3,3-dimethylbutanoyl]-4-hydroxy-N-{[4-(1,3-oxazol-5-yl)phenyl]methyl}pyrrolidine-2-carboxamide], for which the Dmax is greater than 71% and the DC50 is less than 50 nM.

As for `Cc1ncoc1-c1ccc(CNC(=O)[C@@H]2C[C@@H](O)CN2C(=O)[C@@H](NC(=O)COCCCCOc2ccc(-c3ccc(N4C(=S)N(c5ccc(C#N)c(Cl)c5)C(=O)C4(C)C)cc3)cc2)C(C)(C)C)cc1` [Example 110, (2S,4R)-1-[(2S)-2-{2-[4-(4-{4-[3-(3-chloro-4-cyanophenyl)-5,5-dimethyl-4-oxo-2-sulfanylideneimidazolidin-1-yl]phenyl}phenoxy)butoxy]acetamido}-3,3-dimethylbutanoyl]-4-hydroxy-N-{[4-(4-methyl-1,3-oxazol-5-yl)phenyl]methyl}pyrrolidine-2-carboxamide], the Dmax was greater than 71% and the DC50 is less than 50 nM.

For the origin of these results see patent US11427548B2 (Arvinas Operations, Inc., priority 2015, dated 2022).
